Assay results: patent US20090209527A1, “Methods for Using Rapamycin Analogues in the Treatment of Neurological Disorders” (Wyeth, priority 2008, published 2009)
“Also recorded” adds a separate entry of the source.

What was measured:
[1] = system: Spinal cord neuron cultures; experiment: Spinal cord neuron assay; format: cell-based; conditions: Rattus norvegicus, 72 hours treatment, read-out: EC50 in spinal cord neuron assays
Experimental: Spinal cord neuron cultures were prepared from embryonic day 15 (E15) rat embryos (Liu et al., Screening of Immunophilin Ligands by Quantitative Analysis of Neurofilament Expression and Neurite Outgrowth in Cultured Neurons and Cells, J. Neurosci. Methods, 2007 Jul. 30; 163(2):310-20). The embryos were collected and their spinal cords were removed in ice-cold phosphate-buffered saline (PBS) without Ca^2+ and Mg^2+. Dissected pieces of spinal cord tissue were pooled together and transferred to an enzymatic dissociation media containing 20 IU/mL papain in Earle's balanced salt solution (Worthington Biochemical, Freehold, N.J.) and incubated for 30 minutes at 37° C. After enzymatic dissociation, the papain solution was aspirated and the tissue mechanically triturated with a fire-polished Pasteur pipette in complete media [Neurobasal Medium with B-27 supplement (Gibco, Grand Island, N.Y.), 100 IU/mL penicillin, 100 µg/mL streptomycin, […] aphidicolin, 0.5 mM glutamate] containing 2,000 IU/mL DNase and 10 mg/mL ovomucoid protease inhibitor. Single-cell suspensions in complete media were plated on pre-coated poly-L-ornithine/laminin 96-well plates (Becton-Dickinson, Bedford, Mass.) at a density of 1.0×10^4 cells/well. Spinal cord neurons were maintained for 24 hours then exposed to vehicle or various concentrations of compound for 72 hours.

[2] = system: tMCAO in rats; experiment: Transient middle cerebral artery occlusion (tMCAO) model of ischemic stroke; format: in vivo, rat; conditions: for reduction of infarct volume: 72 hours
Experimental: The compound of Example 2 was evaluated in two known rodent models of ischemic stroke. [Bederson J B, Pitts L H, Tsuji M, Nishimura M C, Davis R L, Bartkowski H (1986) Rat middle cerebral artery occlusion: evaluation of the model and development of a neurologic examination. Stroke 17(3): 472-476; Chen S T, Hsu C Y, Hogan E L, Maricq H Balentine J D (1986) A model of focal ischemic stroke in the rat: reproducible extensive cortical infarction. Stroke 17:738-743. DeRyck M, van Reempts J, Duytschaever H, van Deuren B, Clincke G (1992) Neocortical localization of tactile/proprioceptive limb placing reactions in the rat. Brain Res 573:44-60; Longa Z E, Weinstein P R, Carlson S, Cummins R. (1989) Reversible middle cerebral artery occlusion without craniectomy in rats. Stroke 20:294-297.]
The first model is a transient middle cerebral artery occlusion (tMCAO), in which the MCA is occluded for 90 minutes, followed by 72 hours of reperfusion. Rats were subjected to tMCAO and treated with either the compound of Example 2 (3 mg/kg, 10 mg/kg, or 30 mg/kg) via intravenous delivery [iv vehicle: 5% Tween 80, 5% PEG 400, 4% ethanol] or vehicle alone at 4, 6, 24, and 48 hours post-occlusion (4 total doses). Neurological deficits (modified Bederson scale) and weight loss were monitored at 0, 24, 48, and 72 hours post occlusion. At the end of the evaluation period, rats were euthanized and infarct volume was determined. A modified Bederson scale was used to evaluate neurological deficits following stroke. Animals were scored on a scale of 0 to 5, based on five parameters (forelimb flexion, torso twisting, resistant to lateral push, circling to contralateral side, and spontaneous circling). A score of 0 is normal whereas a score of 5 represents severe neurological deficits.

[3] = system: pMCAO in rats; experiment: Further pMCAO studies, treatment paradigms (first dose 2, 6 or 24 hours post-occlusion); format: in vivo, rat; conditions: for neurological function following pMCAO vs vehicle: 5 total doses, 3-week period; for neurological function following pMCAO, long-term: additional 3 months
Description: Rats were subjected to pMCAO and treated with either the compound of Example 2 delivered intravenously into rat tail vein [iv vehicle: 5% Tween 80, 5% PEG 400, 4% ethanol] or vehicle alone. Three different treatment paradigms were used to determine the clinical relevance of the compound of Example 2. Long-term sensorimotor deficits are monitored (tactile/proprioceptive/hindlimb placement tests) over a 3-week and 6-month period. The animals are scored on a scale of 0-12 (normal to severe neurological deficits).
In the first study, the first dose of 10 mg/kg of the compound of Example 2 is given 2 hours post-occlusion, followed by 4 additional doses, 24 hours apart (5 total doses). Neurological deficits were monitored over a 3-week period.
In the second study, the first dose of the compound of Example 2 is given 6 hours post-occlusion, followed by 4 additional doses, 24 hours apart (5 total doses). Neurological deficits were monitored over a 3-week period.
These animals were maintained for an additional 3 months. During this period, neurological deficits were continually monitored, to determine whether the effect seen at 21 days is stable and long lasting.
In the third study, the first dose of the compound of Example 2 is given 24 hours post-occlusion, followed by 4 additional doses, 24 hours apart (5 total doses). Neurological deficits were monitored over a 3-week period.
Brains from animals in the third study were collected and processed for neuronal, regenerative, and cell death markers.

[4] = 10 mg/kg iv, first dose 6 hours post-occlusion
[5] = 30 mg/kg iv, first dose 6 hours post-occlusion
[6] = 30 mg/kg, third study (first dose 24 hours post-occlusion)
[7] = 6 hour post-occlusion, dose not stated

Structure (SMILES): CO[C@H]1C[C@@H]2CC[C@@H](C)[C@@](O)(O2)C(=O)C(=O)N2CCCC[C@H]2C(=O)O[C@H]([C@H](C)C[C@@H]2CC[C@@H](O)[C@H](OC)C2)CC(=O)[C@H](C)/C=C(\C)[C@@H](O)[C@@H](OC)C(=O)[C@H](C)C[C@H](C)[C@@H]2CC[C@H](/C=C/1C)ON2c1ccccc1 [Example 2, 9,27-dihydroxy-3-{2-[4-hydroxy-3-methoxycyclohexyl]-1-methylethyl}-10,21-dimethoxy-6,8,12,14,20,26-hexamethyl-37-phenyl-4,9,10,12,13,14,15,16,17,18,21,22,23,24,25,26,27,32,33,34,34a-henicosahydro-3H-23,27-epoxy-18,15-(epoxyimino)pyrido[2,1-c][1,4]oxazacyclohentriacontine-1,5,11,28,29(6H,31H)-pentone]
- EC50 [1]: < 1000 nM
- weight loss following tMCAO ([2]; 3 mg/kg iv): significantly attenuated weight loss
- neurological deficits (modified Bederson scale) following tMCAO vs vehicle ([2]; 3 mg/kg iv at 4, 6, 24 and 48 hours post-occlusion): showed trends of improving neurological deficits, but did not reach statistical significance
- reduction of infarct volume ([2]; 3 mg/kg iv, did not reach statistical significance): 9%
- weight loss following tMCAO ([2]; 10 mg/kg iv): significantly attenuated weight loss
- neurological deficits (modified Bederson scale) following tMCAO vs vehicle ([2]; 10 mg/kg iv at 4, 6, 24 and 48 hours post-occlusion): significantly improved neurological deficits
- reduction of infarct volume ([2]; 10 mg/kg iv, significant vs vehicle): 24%
- weight loss following tMCAO ([2]; 30 mg/kg iv): significantly attenuated weight loss
- neurological deficits (modified Bederson scale) following tMCAO vs vehicle ([2]; 30 mg/kg iv at 4, 6, 24 and 48 hours post-occlusion): significantly improved neurological deficits
- reduction of infarct volume ([2]; 30 mg/kg iv, significant vs vehicle): 23%
- infarct volume following tMCAO in rats (FIG. 10) ([2]; dose not stated): reduces infarct volume
- neurological deficits following tMCAO in rats (FIG. 8) ([2]; dose not stated): improves neurological deficits
- weight loss following tMCAO in rats (FIG. 9) ([2]; dose not stated): attenuates weight loss
- neurological function following pMCAO vs vehicle ([3]; 3 mg/kg iv, first dose 6 hours post-occlusion): did not improve neurological function
- neurological function following pMCAO vs vehicle ([3]; 3 mg/kg iv, first dose 24 hours post-occlusion): did not improve neurological function
- neurological function following pMCAO vs vehicle ([3]; 10 mg/kg iv, first dose 2 hours post-occlusion): significantly improved and accelerated neurological function; also recorded: improves neurological function
- neurological function following pMCAO vs vehicle [3, 4]: significantly improved and accelerated neurological function
- neurological function following pMCAO, long-term [3, 4]: further improved neurological function and this improvement was stable and long lasting
- neurological function following pMCAO vs vehicle ([3]; 10 mg/kg iv, first dose 24 hours post-occlusion): did not improve neurological function
- neurological function following pMCAO vs vehicle [3, 5]: significantly improved and accelerated neurological function
- neurological function following pMCAO, long-term [3, 5]: further improved neurological function and this improvement was stable and long lasting
- neurological function following pMCAO vs vehicle ([3]; 30 mg/kg iv, first dose 24 hours post-occlusion): significantly improved and accelerated neurological function
- apoptotic cell death (TUNEL labeling) in the hippocampus [3, 6]: reducing apoptotic cell death
- neuroprotection (Neu-N positive cells) in the hippocampus [3, 6]: promotes neuroprotection
- neuroregeneration (GAP-43 labeling) in the cortex [3, 6]: promotes neuroregeneration in the cortex
- neurological function following pMCAO (3-weeks) in rats (FIG. 12) [3, 7]: improves neurological function
- neurological function following pMCAO (3 months) in rats (FIG. 13) [3, 7]: improves neurological function
- neurological function following pMCAO (3 weeks) in rats (FIG. 14) ([3]; 24 hour post-occlusion, dose not stated): improves neurological function
- neuroregeneration in the hippocampus (FIG. 15) ([3]; dose not stated): promotes neuroregeneration in the hippocampus
- therapeutic window (time of first administration after onset of stroke) ([3]; rat models of ischemic stroke): at least 24 hours
